Legend:
[1] = molecular target: T1, Gamma-aminobutyric acid receptor subunit rho-1 (Homo sapiens, UniProt P24046); assay: Agonist activity at human recombinant GABAc rho1 receptor expressed in Xenopus laevis oocytes at -60mV by two-electrode voltage clamp method; format: functional, cell-based, Oocyte
[2] = molecular target: T1, Gamma-aminobutyric acid receptor subunit rho-1; assay: Antagonist activity at human recombinant GABAc rho1 receptor expressed in Xenopus laevis oocytes at -60mV by two-electrode voltage clamp method; format: functional, cell-based, Oocyte

T1 sequence (P24046 whole entry): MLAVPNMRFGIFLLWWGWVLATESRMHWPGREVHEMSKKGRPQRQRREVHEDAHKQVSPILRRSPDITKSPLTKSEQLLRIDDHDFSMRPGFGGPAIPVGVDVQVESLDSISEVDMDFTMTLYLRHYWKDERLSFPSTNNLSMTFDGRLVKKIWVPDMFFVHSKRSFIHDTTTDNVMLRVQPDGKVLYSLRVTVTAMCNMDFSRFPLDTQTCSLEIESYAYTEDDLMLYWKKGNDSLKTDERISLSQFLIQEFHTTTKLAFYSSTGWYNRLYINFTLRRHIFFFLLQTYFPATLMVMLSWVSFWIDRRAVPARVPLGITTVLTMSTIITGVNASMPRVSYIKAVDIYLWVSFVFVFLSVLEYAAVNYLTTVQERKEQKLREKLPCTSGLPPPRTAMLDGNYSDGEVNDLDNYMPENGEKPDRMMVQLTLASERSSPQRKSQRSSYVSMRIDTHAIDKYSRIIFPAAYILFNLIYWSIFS

Row | EC50 [1] [µM] | SMILES | IC50 [2] [µM]
1 | 44.8 | NC[C@@H](O)CC(=O)O | 
2 |  | CP(=O)(O)C[C@@H](O)CN | 17.1
3 | 19.1 | NC[C@H](O)CC(=O)O | 
4 |  | CP(=O)(O)C[C@H](O)CN | 5.4
5 |  | C[C@H](CCN)C(=O)O | 16
6 | 65 | C[C@@H](CCN)C(=O)O | 

From ChEMBL document CHEMBL1143261, “Enantioselective actions of 4-amino-3-hydroxybutanoic acid and (3-amino-2-hydroxypropyl)methylphosphinic acid at recombinant GABA(C) receptors” (Bioorg Med Chem Lett, 2008)
